Source: patent publication US6830765B2, “Green tea extract for treating obesity” (priority 1999, dated 2004)

What was measured:
rat brown adipose tissue = assay: Ex vivo model of thermogenesis: oxygen consumption of a sample of rat brown adipose tissue; assay type: cell-based
Description: These studies were carried out on an ex vivo pharmacological model of thermogenesis. The principle is to measure the oxygen consumption of a sample of rat brown adipose tissue; the oxygen consumption is proportional to the thermogenesis induced in the adipose tissue by the various test substances.

thermogenesis = assay: Increase in thermogenesis in man (total expenditure of energy over 24 h, 10 volunteers); assay type: in vivo
Description: The increase in thermogenesis in man by an extract of green tea according to the invention was also determined. A similar study was carried out on 10 volunteers receiving at each meal either 500 mg of an extract of green tea (corresponding to 125 mg of catechols and 50 mg of caffeine), or 50 mg of caffeine, or a placebo.

O=C(O[C@@H]1Cc2c(O)cc(O)cc2O[C@@H]1c1cc(O)c(O)c(O)c1)c1cc(O)c(O)c(O)c1 [EGCG, epigallocatechol gallate]
Increase in oxygen consumption (rat brown adipose tissue; Caffeine 0, EGCG 100 μM): no
Increase in oxygen consumption (rat brown adipose tissue; Caffeine 0, EGCG 200 μM): +40%

Cn1c(=O)c2c(ncn2C)n(C)c1=O [caffeine]
total expenditure of energy over 24 h (thermogenesis; 50 mg of caffeine at each meal, placebo 9538 kJ): 9599 kJ
effect on thermogenesis, result in words (thermogenesis; caffeine alone at the same dose as provided by the extract): does not increase thermogenesis
Increase in oxygen consumption (rat brown adipose tissue; Caffeine 100 μM, EGCG 0): no
